Assay results as given in ChEMBL document CHEMBL4665836, “Overcoming β-Lactam resistance in Pseudomonas aeruginosa using non-canonical tobramycin-based antibiotic adjuvants” (2020).

What was measured:
Type in all cases: functional
Pseudomonas aeruginosa [1] = test: Potentiation of aztreonam-induced antibacterial activity against carbapenem-resistant Pseudomonas aeruginosa 88949 clinical isolate assessed as fold reduction in aztreonam MIC at 8 uM in presence of beta-lactamase inhibitor, avi-bactam
Pseudomonas aeruginosa [2] = test: Potentiation of aztreonam-induced antibacterial activity against carbapenem-resistant Pseudomonas aeruginosa 109084 clinical isolate assessed as fold reduction in aztreonam MIC at 8 uM in presence of beta-lactamase inhibitor, avi-bactam
Pseudomonas aeruginosa [3] = test: Potentiation of ceftazidime-induced antibacterial activity against carbapenem-resistant Pseudomonas aeruginosa 88949 clinical isolate assessed as fold reduction in ceftazidime MIC at 8 uM in presence of beta-lactamase inhibitor, avi-bactam
Pseudomonas aeruginosa [4] = test: Potentiation of imipenem-induced antibacterial activity against carbapenem-resistant Pseudomonas aeruginosa 109084 clinical isolate assessed as imipenem MIC at 8 uM by checkerboard assay (reference value: 16 ug/ml)
Pseudomonas aeruginosa [5] = test: Potentiation of imipenem-induced antibacterial activity against carbapenem-resistant Pseudomonas aeruginosa 108590 clinical isolate assessed as imipenem MIC at 8 uM by checkerboard assay (reference value: 16 ug/ml)
Pseudomonas aeruginosa [6] = test: Potentiation of imipenem-induced antibacterial activity against carbapenem-resistant Pseudomonas aeruginosa 88949 clinical isolate assessed as imipenem MIC at 8 uM by checkerboard assay (reference value: 64 ug/ml)
Pseudomonas aeruginosa [7] = test: Potentiation of aztreonam-induced antibacterial activity against carbapenem-resistant Pseudomonas aeruginosa 88949 clinical isolate assessed as aztreonam MIC at 8 uM by checkerboard assay (reference value: 32 ug/ml)
Pseudomonas aeruginosa [8] = test: Potentiation of aztreonam-induced antibacterial activity against carbapenem-resistant Pseudomonas aeruginosa 259-96918 clinical isolate expressing metallo-beta-lactamase assessed as aztreonam MIC at 8 uM by checkerboard assay (reference value: 32 ug/ml)
Pseudomonas aeruginosa [9] = test: Potentiation of aztreonam-induced antibacterial activity against wild type Pseudomonas aeruginosa PAO1 assessed as fold reduction in aztreonam MIC at 8 uM
Pseudomonas aeruginosa [10] = test: Potentiation of ceftazidime-induced antibacterial activity against carbapenem-resistant Pseudomonas aeruginosa 109084 clinical isolate assessed as ceftazidime MIC at 8.7 uM by checkerboard assay (reference value: 64 ug/ml)
Pseudomonas aeruginosa [11] = test: Potentiation of ceftazidime-induced antibacterial activity against carbapenem-resistant Pseudomonas aeruginosa 108590 clinical isolate assessed as ceftazidime MIC at 8.7 uM by checkerboard assay (reference value: 32 ug/ml)
Pseudomonas aeruginosa [12] = test: Potentiation of ceftazidime-induced antibacterial activity against carbapenem-resistant Pseudomonas aeruginosa 107092 clinical isolate assessed as ceftazidime MIC at 8.7 uM by checkerboard assay (reference value: 128 ug/ml)
Pseudomonas aeruginosa [13] = test: Potentiation of ceftazidime-induced antibacterial activity against carbapenem-resistant Pseudomonas aeruginosa 88949 clinical isolate assessed as ceftazidime MIC at 8.7 uM by checkerboard assay (reference value: 64 ug/ml)
Pseudomonas aeruginosa [14] = test: Potentiation of ceftazidime-induced antibacterial activity against carbapenem and colistin-resistant Pseudomonas aeruginosa 114228 clinical isolate assessed as ceftazidime MIC at 8.7 uM by checkerboard assay (reference value: 8 ug/ml)
Pseudomonas aeruginosa [15] = test: Potentiation of ceftazidime-induced antibacterial activity against carbapenem-resistant Pseudomonas aeruginosa 100036 clinical isolate assessed as ceftazidime MIC at 8.7 uM by checkerboard assay (reference value: 8 ug/ml)
Pseudomonas aeruginosa [16] = test: Potentiation of ceftazidime-induced antibacterial activity against carbapenem-resistant Pseudomonas aeruginosa 264-104354 clinical isolate assessed as ceftazidime MIC at 8.7 uM by checkerboard assay (reference value: 128 ug/ml)
Pseudomonas aeruginosa [17] = test: Potentiation of ceftazidime-induced antibacterial activity against carbapenem-resistant Pseudomonas aeruginosa 262-101856 clinical isolate assessed as ceftazidime MIC at 8.7 uM by checkerboard assay (reference value: 16 ug/ml)
Pseudomonas aeruginosa [18] = test: Potentiation of ceftazidime-induced antibacterial activity against carbapenem-resistant Pseudomonas aeruginosa 260-97103 clinical isolate assessed as ceftazidime MIC at 8.7 uM by checkerboard assay (reference value: 32 ug/ml)
Pseudomonas aeruginosa [19] = test: Potentiation of ceftazidime-induced antibacterial activity against carbapenem-resistant Pseudomonas aeruginosa 259-96918 clinical isolate expressing metallo-beta-lactamase assessed as ceftazidime MIC at 8.7 uM by checkerboard assay (reference value: 512 ug/ml)
Pseudomonas aeruginosa [20] = test: Potentiation of aztreonam-induced antibacterial activity against carbapenem-resistant Pseudomonas aeruginosa PAO750 harboring and mexAB-oprM/mexCD-oprJ/mexEF-oprN/mexJK/mexXY/opmH efflux deficient mutant assessed as aztreonam MIC at 8.7 uM by checkerboard assay (reference value: 0.5 ug/ml)
Pseudomonas aeruginosa [21] = test: Potentiation of aztreonam-induced antibacterial activity against carbapenem-resistant Pseudomonas aeruginosa PAO200 harboring and mexAB-oprM efflux deficient mutant assessed as aztreonam MIC at 8.7 uM by checkerboard assay (reference value: 0.25 ug/ml)
Pseudomonas aeruginosa [22] = test: Potentiation of aztreonam-induced antibacterial activity against carbapenem-resistant Pseudomonas aeruginosa 109084 clinical isolate assessed as aztreonam MIC at 8.7 uM by checkerboard assay (reference value: 64 ug/ml)
Pseudomonas aeruginosa [23] = test: Potentiation of aztreonam-induced antibacterial activity against carbapenem-resistant Pseudomonas aeruginosa 108590 clinical isolate assessed as aztreonam MIC at 8.7 uM by checkerboard assay (reference value: 32 ug/ml)
Pseudomonas aeruginosa [24] = test: Potentiation of aztreonam-induced antibacterial activity against carbapenem-resistant Pseudomonas aeruginosa 107092 clinical isolate assessed as aztreonam MIC at 8.7 uM by checkerboard assay (reference value: 64 ug/ml)
Pseudomonas aeruginosa [25] = test: Potentiation of aztreonam-induced antibacterial activity against carbapenem-resistant Pseudomonas aeruginosa 88949 clinical isolate assessed as aztreonam MIC at 8.7 uM by checkerboard assay (reference value: 32 ug/ml)
Pseudomonas aeruginosa [26] = test: Potentiation of aztreonam-induced antibacterial activity against carbapenem and colistin-resistant Pseudomonas aeruginosa 114228 clinical isolate assessed as aztreonam MIC at 8.7 uM by checkerboard assay (reference value: 32 ug/ml)
Pseudomonas aeruginosa [27] = test: Potentiation of aztreonam-induced antibacterial activity against carbapenem-resistant Pseudomonas aeruginosa 101885 clinical isolate assessed as aztreonam MIC at 8.7 uM by checkerboard assay (reference value: 16 ug/ml)
Pseudomonas aeruginosa [28] = test: Potentiation of aztreonam-induced antibacterial activity against carbapenem and colistin-resistant Pseudomonas aeruginosa 91433 clinical isolate assessed as aztreonam MIC at 8.7 uM by checkerboard assay (reference value: 16 ug/ml)
Pseudomonas aeruginosa [29] = test: Potentiation of aztreonam-induced antibacterial activity against carbapenem-resistant Pseudomonas aeruginosa 262-101856 clinical isolate assessed as aztreonam MIC at 8.7 uM by checkerboard assay (reference value: 32 ug/ml)
Pseudomonas aeruginosa [30] = test: Potentiation of aztreonam-induced antibacterial activity against carbapenem-resistant Pseudomonas aeruginosa 260-97103 clinical isolate assessed as aztreonam MIC at 8.7 uM by checkerboard assay (reference value: 64 ug/ml)
Pseudomonas aeruginosa [31] = test: Potentiation of aztreonam-induced antibacterial activity against carbapenem-resistant Pseudomonas aeruginosa 259-96918 clinical isolate expressing metallo-beta-lactamase assessed as aztreonam MIC at 8.7 uM by checkerboard assay (reference value: 32 ug/ml)

## NC[C@H]1O[C@H](O[C@H]2[C@H](OCCCCc3cn(CCCCO[C@@H]4[C@@H](O[C@H]5O[C@H](CO)[C@@H](O)[C@H](N)[C@H]5O)[C@H](N)C[C@H](N)[C@H]4O[C@H]4O[C@H](CN)[C@@H](O)C[C@H]4N)nn3)[C@@H](O[C@H]3O[C@H](CO)[C@@H](O)[C@H](N)[C@H]3O)[C@H](N)C[C@@H]2N)[C@H](N)C[C@@H]1O.O=C(O)C(F)(F)F.O=C(O)C(F)(F)F.O=C(O)C(F)(F)F.O=C(O)C(F)(F)F.O=C(O)C(F)(F)F.O=C(O)C(F)(F)F.O=C(O)C(F)(F)F.O=C(O)C(F)(F)F.O=C(O)C(F)(F)F.O=C(O)C(F)(F)F
Pseudomonas aeruginosa [1]
  fold change (FC): 16
Pseudomonas aeruginosa [2]
  fold change (FC): 16
Pseudomonas aeruginosa [3]
  fold change (FC): 16
Pseudomonas aeruginosa [4]
  MIC: 8 µg/mL
Pseudomonas aeruginosa [5]
  MIC: 4 µg/mL
Pseudomonas aeruginosa [6]
  MIC: 4 µg/mL
Pseudomonas aeruginosa [7]
  MIC: 32 µg/mL
Pseudomonas aeruginosa [8]
  MIC: 8 µg/mL
Pseudomonas aeruginosa [9]
  fold change (FC): 2

## Cl.Cl.Cl.Cl.Cl.NC[C@H]1O[C@H](O[C@H]2[C@H](OCCCCCCCCCCCCN3CCN(c4cc5c(cc4F)c(=O)c(C(=O)O)cn5C4CC4)CC3)[C@@H](O)[C@H](N)C[C@@H]2N)[C@H](N)C[C@@H]1O
Pseudomonas aeruginosa [1]
  fold change (FC): 16
Pseudomonas aeruginosa [2]
  fold change (FC): 16
Pseudomonas aeruginosa [3]
  fold change (FC): 16
Pseudomonas aeruginosa [4]
  MIC: 8 µg/mL
Pseudomonas aeruginosa [5]
  MIC: 0.5 µg/mL
Pseudomonas aeruginosa [6]
  MIC: 64 µg/mL
Pseudomonas aeruginosa [7]
  MIC: 8 µg/mL
Pseudomonas aeruginosa [8]
  MIC: 8 µg/mL
Pseudomonas aeruginosa [9]
  fold change (FC): 2

## N=C(N)NC[C@H]1O[C@H](O[C@H]2[C@H](OCCCCCCCCCCCCN3CCN(c4cc5c(cc4F)c(=O)c(C(=O)O)cn5C4CC4)CC3)[C@@H](O[C@H]3O[C@H](CO)[C@@H](O)[C@H](NC(=N)N)[C@H]3O)[C@H](NC(=N)N)C[C@@H]2NC(=N)N)[C@H](NC(=N)N)C[C@@H]1O.O=C(O)C(F)(F)F.O=C(O)C(F)(F)F.O=C(O)C(F)(F)F.O=C(O)C(F)(F)F.O=C(O)C(F)(F)F.O=C(O)C(F)(F)F
Pseudomonas aeruginosa [1]
  fold change (FC): 16
Pseudomonas aeruginosa [2]
  fold change (FC): 16
Pseudomonas aeruginosa [3]
  fold change (FC): 16
Pseudomonas aeruginosa [4]
  MIC: 16 µg/mL
Pseudomonas aeruginosa [5]
  MIC: 4 µg/mL
Pseudomonas aeruginosa [6]
  MIC: 64 µg/mL
Pseudomonas aeruginosa [7]
  MIC: 32 µg/mL
Pseudomonas aeruginosa [8]
  MIC: 32 µg/mL
Pseudomonas aeruginosa [9]
  fold change (FC): 2

## Cl.Cl.Cl.Cl.Cl.Cl.NC[C@H]1O[C@H](O[C@H]2[C@H](OCCCCCCCCCCCCN3CCN(c4cc5c(cc4F)c(=O)c(C(=O)O)cn5C4CC4)CC3)[C@@H](O[C@H]3O[C@H](CO)[C@@H](O)[C@H](N)[C@H]3O)[C@H](N)C[C@@H]2N)[C@H](N)C[C@@H]1O
Pseudomonas aeruginosa [1]
  fold change (FC): 16
Pseudomonas aeruginosa [2]
  fold change (FC): 16
Pseudomonas aeruginosa [3]
  fold change (FC): 16
Pseudomonas aeruginosa [4]
  MIC: 8 µg/mL
Pseudomonas aeruginosa [5]
  MIC: 0.25 µg/mL
Pseudomonas aeruginosa [6]
  MIC: 8 µg/mL
Pseudomonas aeruginosa [7]
  MIC: 8 µg/mL
Pseudomonas aeruginosa [8]
  MIC: 8 µg/mL
Pseudomonas aeruginosa [9]
  fold change (FC): 2

## NC[C@H]1O[C@H](O[C@H]2[C@H](OCCCCCCCCN3CCCNCCNCCCNCC3)[C@@H](O[C@H]3O[C@H](CO)[C@@H](O)[C@H](N)[C@H]3O)[C@H](N)C[C@@H]2N)[C@H](N)C[C@@H]1O.O=C(O)C(F)(F)F.O=C(O)C(F)(F)F.O=C(O)C(F)(F)F.O=C(O)C(F)(F)F.O=C(O)C(F)(F)F.O=C(O)C(F)(F)F.O=C(O)C(F)(F)F.O=C(O)C(F)(F)F.O=C(O)C(F)(F)F
Pseudomonas aeruginosa [1]
  fold change (FC): 16
Pseudomonas aeruginosa [2]
  fold change (FC): 16
Pseudomonas aeruginosa [3]
  fold change (FC): 16
Pseudomonas aeruginosa [4]
  MIC: 8 µg/mL
Pseudomonas aeruginosa [5]
  MIC: 16 µg/mL
Pseudomonas aeruginosa [6]
  MIC: 32 µg/mL
Pseudomonas aeruginosa [10]
  MIC: 16 µg/mL
Pseudomonas aeruginosa [11]
  MIC: 8 µg/mL
Pseudomonas aeruginosa [12]
  MIC: 32 µg/mL
Pseudomonas aeruginosa [13]
  MIC: 16 µg/mL
Pseudomonas aeruginosa [14]
  MIC: 1 µg/mL
Pseudomonas aeruginosa [15]
  MIC: 2 µg/mL
Pseudomonas aeruginosa [16]
  MIC: 32 µg/mL
Pseudomonas aeruginosa [17]
  MIC: 4 µg/mL
Pseudomonas aeruginosa [18]
  MIC: 16 µg/mL
Pseudomonas aeruginosa [19]
  MIC: 64 µg/mL
Pseudomonas aeruginosa [20]
  MIC: 0.03 µg/mL
Pseudomonas aeruginosa [21]
  MIC: 0.02 µg/mL
Pseudomonas aeruginosa [22]
  MIC: 8 µg/mL
Pseudomonas aeruginosa [23]
  MIC: 8 µg/mL
Pseudomonas aeruginosa [24]
  MIC: 16 µg/mL
Pseudomonas aeruginosa [25]
  MIC: 16 µg/mL
Pseudomonas aeruginosa [26]
  MIC: 4 µg/mL
Pseudomonas aeruginosa [27]
  MIC: 0.5 µg/mL
Pseudomonas aeruginosa [28]
  MIC: 16 µg/mL
Pseudomonas aeruginosa [29]
  MIC: 8 µg/mL
Pseudomonas aeruginosa [30]
  MIC: 8 µg/mL
Pseudomonas aeruginosa [31]
  MIC: 4 µg/mL
Pseudomonas aeruginosa [9]
  fold change (FC): 2

## NC[C@H]1O[C@H](O[C@H]2[C@H](OCCCCc3cn(CCCCO[C@@H]4[C@@H](O)[C@H](N)C[C@H](N)[C@H]4O[C@H]4O[C@H](CN)[C@@H](O)C[C@H]4N)nn3)[C@@H](O)[C@H](N)C[C@@H]2N)[C@H](N)C[C@@H]1O.O=C(O)C(F)(F)F.O=C(O)C(F)(F)F.O=C(O)C(F)(F)F.O=C(O)C(F)(F)F.O=C(O)C(F)(F)F.O=C(O)C(F)(F)F.O=C(O)C(F)(F)F.O=C(O)C(F)(F)F
Pseudomonas aeruginosa [1]
  fold change (FC): 16
Pseudomonas aeruginosa [2]
  fold change (FC): 16
Pseudomonas aeruginosa [3]
  fold change (FC): 16
Pseudomonas aeruginosa [4]
  MIC: 16 µg/mL
Pseudomonas aeruginosa [5]
  MIC: 8 µg/mL
Pseudomonas aeruginosa [6]
  MIC: 32 µg/mL
Pseudomonas aeruginosa [7]
  MIC: 16 µg/mL
Pseudomonas aeruginosa [8]
  MIC: 8 µg/mL
Pseudomonas aeruginosa [9]
  fold change (FC): 2

## NC[C@H]1O[C@H](O[C@H]2[C@H](OCCCCCCCCN3CCCNCCNCCCNCC3)[C@@H](O)[C@H](N)C[C@@H]2N)[C@H](N)C[C@@H]1O.O=C(O)C(F)(F)F.O=C(O)C(F)(F)F.O=C(O)C(F)(F)F.O=C(O)C(F)(F)F.O=C(O)C(F)(F)F.O=C(O)C(F)(F)F.O=C(O)C(F)(F)F.O=C(O)C(F)(F)F
Pseudomonas aeruginosa [1]
  fold change (FC): 16
Pseudomonas aeruginosa [2]
  fold change (FC): 16
Pseudomonas aeruginosa [3]
  fold change (FC): 16
Pseudomonas aeruginosa [4]
  MIC: 16 µg/mL
Pseudomonas aeruginosa [5]
  MIC: 16 µg/mL
Pseudomonas aeruginosa [6]
  MIC: 64 µg/mL
Pseudomonas aeruginosa [7]
  MIC: 32 µg/mL
Pseudomonas aeruginosa [8]
  MIC: 8 µg/mL
Pseudomonas aeruginosa [9]
  fold change (FC): 2
